Here are results for three compounds from patent US12076312B2, “Repurposing anti-androgen therapy for COVID-19 and immunotherapy” (Wisconsin Alumni Research Foundation, priority 2021, dated 2024).

In one experiment the target is AR (Homo sapiens, UniProt P10275). As to conditions: cited from earlier work.
Experiment [1] concerns the target mutant AR forms (F877L mutation) (Homo sapiens, UniProt P10275, F877L). The following applies: F877L mutation that confers resistance to enzalutamide; cited from earlier work.
The test system of experiment [2] is AR mRNA in A549 lung cancer cells. Kind of experiment: AR mRNA level by qRT-PCR. The format is cell-based. The procedure: (§1) From two independent biological experiments with 3 replicates (n=6), RNA samples were collected with TRIzol reagent (Invitrogen) and isolated using RNeasy Mini Kit (Qiagen). RNA concentrations were measured using A260 nm/A280 nm spectroscopy on the Nanodrop ND-1000 (Thermo-scientific). For each RNA sample, 1000 ng of RNA was reversed transcripted into first-strand cDNA using the High-Capacity RNA-to-cDNA Kit (Applied Biosystems).
(§2) Three independent biological replicates of mRNA samples were collected for each condition, and three technical replicates were run for each sample in qRT-PCR. The fold changes and p-values were calculated with the ΔΔCt method32 and two-sample t-test, respectively. Ubiquitin C (UBC) was used as the housekeeping gene for normalization.

Experiment [3] deals with AR mRNA in NCI-H2228 lung cancer cells. The experiment is described as follows: AR mRNA level by qRT-PCR. The format is cell-based. The method, then:
as §1, §2

In experiment [4] the test system is AR protein translocation in A549. Kind of experiment: AR immunofluorescent imaging, nuclear translocation. As to conditions: A549, 1 nM R1881, 24 h.
Protocol: (§4) After incubating in blocking buffer (5% normal goat serum and 0.2% fish skin gelatin in 0.2% Tween/PBS) for 1 hour at room temperature, the cells were stained with primary antibodies overnight at 4° C. […] Immunofluorescence images were captured on Leica TCS WLL SP8 Laser scanning confocal microscopy (Leica Microsystems) using 63× oil immersion objective (Scale bar: 10 μm). Multiple images were taken at different fields of coverslip to obtain at least 100 cells for AR quantification. The sum of pixel intensities of AR signal within the nucleus and cytoplasm was quantified using a custom MATLAB program (R2017b, MathWorks). Briefly, the program utilized the actin and DRAQ5 channels to create masks for the cytoplasm and nucleus regions, respectively. These masks were then used to determine the AR signal within cytoplasm and nucleus, and the nucleus-to-cytoplasm ratio of AR signal was calculated by dividing the AR signal inside the nucleus by the AR signal within the entire cell (nucleus and cytoplasm).
The test system of experiment [5] is AR protein translocation in H2228. The experiment is described as above. The following applies: H2228, 1 nM R1881, 24 h.
Protocol: as §4
The test system of experiment [6] is AR responsive genes in A549 cells. The experiment is described as follows: AR signaling gene panel qRT-PCR. The format is cell-based. As to conditions: A549, enzalutamide 5 μM, 24 h. The procedure:
as §1
(§3) Changes in expression levels of AR signaling genes were screened using Bio-Rad's PrimePCR pathway 384-well panel: Androgen Receptor Signaling SAB target list (Cat #10047228) and Androgen Receptor Nuclear Signaling (Cat #10025068). […] Two independent biological replicates of mRNA samples were collected for each condition, and one reaction was run for each sample. If necessary, additional technical replicates were run to rule out any outlier. Relative mRNA expressions and p-values were calculated using the ΔΔCt method and two-sample t-test in Bio-Rad CFX Maestro program (version: 4.0.2325.0418). […] The stabilities of housekeeping genes were checked using the geNorm algorithm provided in CFX Maestro. M values of all housekeeping genes used in this study are less than 0.5, which is considered ideal. Log 2-transformed expression levels and −log 10 (p-value) of all treatment groups were plotted as Bubble and Color map graph in the Origin 2020 software.

In experiment [7] the test system is AR responsive genes in NCI-H2228 cells. The experiment is described as follows: AR signaling gene panel qRT-PCR. Type of experiment: cell-based. The following applies: NCI-H2228, enzalutamide 5 μM, 24 h (FIG. 2C). The procedure: as §1, §3

Sequence of mutant AR forms (F877L mutation) (P10275 whole entry F877L): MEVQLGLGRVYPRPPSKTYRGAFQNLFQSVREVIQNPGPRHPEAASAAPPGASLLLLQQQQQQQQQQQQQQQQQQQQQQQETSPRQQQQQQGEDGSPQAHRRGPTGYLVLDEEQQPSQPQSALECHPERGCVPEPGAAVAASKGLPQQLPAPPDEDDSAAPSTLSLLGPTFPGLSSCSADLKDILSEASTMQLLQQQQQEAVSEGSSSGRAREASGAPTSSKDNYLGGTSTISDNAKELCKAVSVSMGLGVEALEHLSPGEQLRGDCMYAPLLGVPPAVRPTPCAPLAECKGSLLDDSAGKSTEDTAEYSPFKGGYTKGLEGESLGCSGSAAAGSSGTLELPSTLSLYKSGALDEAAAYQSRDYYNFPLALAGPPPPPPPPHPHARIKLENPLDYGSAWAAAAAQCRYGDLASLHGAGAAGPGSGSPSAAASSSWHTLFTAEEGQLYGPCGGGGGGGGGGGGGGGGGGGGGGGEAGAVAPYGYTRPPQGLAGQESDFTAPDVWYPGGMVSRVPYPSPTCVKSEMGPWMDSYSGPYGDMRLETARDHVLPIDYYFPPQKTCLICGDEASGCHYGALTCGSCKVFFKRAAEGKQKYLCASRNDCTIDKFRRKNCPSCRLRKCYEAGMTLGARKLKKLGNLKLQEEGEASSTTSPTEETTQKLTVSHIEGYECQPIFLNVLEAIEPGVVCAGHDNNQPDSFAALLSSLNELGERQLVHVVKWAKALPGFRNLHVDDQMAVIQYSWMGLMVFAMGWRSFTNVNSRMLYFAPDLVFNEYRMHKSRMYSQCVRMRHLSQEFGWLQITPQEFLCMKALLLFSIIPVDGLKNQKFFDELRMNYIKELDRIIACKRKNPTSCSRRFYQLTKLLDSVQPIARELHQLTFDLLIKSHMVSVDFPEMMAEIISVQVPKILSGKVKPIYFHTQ
Sequence of AR (P10275 whole entry): as the sequence (P10275 whole entry F877L) above, with L877F counted along it

Take `CC(O)c1cc(C(=O)N[C@@H](C)Cn2ccc(-c3ccc(C#N)c(Cl)c3)n2)[nH]n1` (stereo partly shown) [Darolutamide]: the “greater affinity for AR compared with enzalutamide” value on AR is 8 fold. For the same compound, the “activity against mutant AR forms” value in experiment [1] is “Remains antagonistic”.
Take `C[C@]1(O)CC[C@H]2[C@@H]3CCC4=CC(=O)CCC4=C3C=C[C@@]21C` [R1881, Metribolone]: the “AR mRNA level” value in experiment [2] (male A549, R1881 1 nM, 2, 4, 8 and 24 h vs control) is “temporally downregulated”. Moreover, the AR expression entry in experiment [3] (female H2228, androgen (R1881) stimulation) is “minimal changes”. The “AR transport to the nucleus” value in experiment [4] and in experiment [5] was “efficiently transported to the nucleus” each time.
For the compound `CNC(=O)c1ccc(N2C(=S)N(c3ccc(C#N)c(C(F)(F)F)c3)C(=O)C2(C)C)cc1F` [enzalutamide], the AR expression entry in experiment [2] (A549, enzalutamide without ligand stimulation) was “increased AR expression”; in experiment [3] (H2228, enzalutamide without ligand stimulation) it was “increased AR expression”. Further, in experiment [2] (male A549, pre-treatment with enzalutamide 30 min before 1 nM R1881), the “R1881-induced downregulation of AR expression” value is “blocked”. Moreover, the “FOS expression log 2FC” value in experiment [6] (p-value=0.008) is −1.627 log 2FC. For the same compound, the “IL6 expression log 2FC” value in experiment [6] (p-value=0.023) is on record as −2.41 log 2FC. For the same compound, in experiment [6] (p-value=0.035), the “MAF expression log 2FC” value is 2.44 log 2FC. In addition, the IL6 expression result in experiment [7] was “significantly upregulated”.
